Test results: US20260083865A1, “PROSTATE SPECIFIC MEMBRANE ANTIGEN (PSMA) LIGANDS AND USE THEREOF” (priority 2022, published 2026)
Blank lines part the entries; values can stand above or below the compound they belong to. Numbered stars: 1 amine (or outer) side, 2 acyl side, 3 side chain; on linkers, the order of the positions; unused ones are H or OH. Bridge positions count the residues as written; N and C are the ends. Square brackets hold non-standard residues; d marks the D form. Peptide text beside a SMILES is read from it. * marks the point of attachment. DOTA = O=C(O)CN1CCN(CC(=O)O)CCN(CC(=O)*)CCN(CC(=O)O)CC1; Phe(4-Cl) = N[C@@H](Cc1ccc(Cl)cc1)C(=O)O; Arg(Me) = CNC(=N)NCCC[C@H](N)C(=O)O; Ethylenediamine = C(CN[*:2])N[*:1]; X1 = O=C(CC1CCN([*:1])CC1)[*:2]; Lys(Me) = CNCCCC[C@H](N)C(=O)O; Tle = CC(C)(C)[C@H](N)C(=O)O; Aib = CC(C)(N)C(=O)O; βAla = NCCC(=O)O

Columns and labels:
[1] = target: T1, PSMA-expressing C4-2 cells (Homo sapiens, UniProt Q04609); test: FACS binding assay (competition with 50 nM PSM-0183); settings: for IC50: read-out: pIC50 [C4-2] CAT (converted)
T1 construct: PSMA-expressing C4-2 cells (ATCC, Cat. No. CRL-3314) were cultured in RPMI-1640; host or cells: C4-2 cells
Outline: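 Competition format: fluorescent tracer PSM-0183 (50 nM) displaced from PSMA on C4-2 cells by a test compound titration over 1 h at 4 °C. Bound tracer was quantified as flow-cytometric AF488 median fluorescence after washing. Four-parameter logistic fits of MFI data gave IC50 and pIC50.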

[2] = target: T2, Fc-fusion protein of human PSMA (hPSMA-Fc) (Homo sapiens, UniProt Q04609); test: Surface plasmon resonance assay (Biacore T200, single cycle kinetic); type: binding; settings: for Kd: read-out: pKD CAT (converted)
T2 construct: purchased Acro Biosystems PSA-H5264
Outline: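 KD, expressed as pKD, came from 1:1 Langmuir fits of reference- and buffer-blank-subtracted SPR data. The runs were single-cycle kinetics at 25° C in HBST/0.1% DMSO over human PSMA-Fc, captured to ~1000 RU on a peptide-coated CM5 surface and regenerated with 10 mM glycine pH 1.5.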

[3] = FACS binding, C4-2 cells, category
[4] = pIC50 category of FACS binding, C4-2 cells
[5] = pKD category for PSMA SPR activity assay, hPSMA-Fc, 25° C.
[6] = FACS binding, C4-2 cells, competition with 50 nM PSM-0183, category
[7] = SPR, hPSMA-Fc, single cycle kinetic, 25° C., category

T1 sequence (Q04609 whole entry): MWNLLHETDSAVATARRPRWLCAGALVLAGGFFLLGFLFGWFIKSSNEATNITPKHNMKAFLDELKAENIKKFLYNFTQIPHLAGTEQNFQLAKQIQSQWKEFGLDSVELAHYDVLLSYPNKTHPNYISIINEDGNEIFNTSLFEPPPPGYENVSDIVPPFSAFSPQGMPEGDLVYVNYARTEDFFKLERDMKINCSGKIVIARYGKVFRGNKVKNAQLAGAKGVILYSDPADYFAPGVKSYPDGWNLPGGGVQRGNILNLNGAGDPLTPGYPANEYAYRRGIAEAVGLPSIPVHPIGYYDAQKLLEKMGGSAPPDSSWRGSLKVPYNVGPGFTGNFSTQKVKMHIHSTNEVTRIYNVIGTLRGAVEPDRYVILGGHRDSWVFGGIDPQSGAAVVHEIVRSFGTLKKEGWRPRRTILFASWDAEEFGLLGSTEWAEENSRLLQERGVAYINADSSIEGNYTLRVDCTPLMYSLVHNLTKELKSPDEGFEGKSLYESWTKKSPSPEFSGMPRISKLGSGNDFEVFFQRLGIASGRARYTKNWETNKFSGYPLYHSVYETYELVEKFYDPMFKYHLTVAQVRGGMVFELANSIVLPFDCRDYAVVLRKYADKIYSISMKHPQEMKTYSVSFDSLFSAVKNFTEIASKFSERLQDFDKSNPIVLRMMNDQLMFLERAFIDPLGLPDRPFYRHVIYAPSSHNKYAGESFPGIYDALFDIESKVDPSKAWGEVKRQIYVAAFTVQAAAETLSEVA
T2 sequence (Q04609 44-750 limits assumed): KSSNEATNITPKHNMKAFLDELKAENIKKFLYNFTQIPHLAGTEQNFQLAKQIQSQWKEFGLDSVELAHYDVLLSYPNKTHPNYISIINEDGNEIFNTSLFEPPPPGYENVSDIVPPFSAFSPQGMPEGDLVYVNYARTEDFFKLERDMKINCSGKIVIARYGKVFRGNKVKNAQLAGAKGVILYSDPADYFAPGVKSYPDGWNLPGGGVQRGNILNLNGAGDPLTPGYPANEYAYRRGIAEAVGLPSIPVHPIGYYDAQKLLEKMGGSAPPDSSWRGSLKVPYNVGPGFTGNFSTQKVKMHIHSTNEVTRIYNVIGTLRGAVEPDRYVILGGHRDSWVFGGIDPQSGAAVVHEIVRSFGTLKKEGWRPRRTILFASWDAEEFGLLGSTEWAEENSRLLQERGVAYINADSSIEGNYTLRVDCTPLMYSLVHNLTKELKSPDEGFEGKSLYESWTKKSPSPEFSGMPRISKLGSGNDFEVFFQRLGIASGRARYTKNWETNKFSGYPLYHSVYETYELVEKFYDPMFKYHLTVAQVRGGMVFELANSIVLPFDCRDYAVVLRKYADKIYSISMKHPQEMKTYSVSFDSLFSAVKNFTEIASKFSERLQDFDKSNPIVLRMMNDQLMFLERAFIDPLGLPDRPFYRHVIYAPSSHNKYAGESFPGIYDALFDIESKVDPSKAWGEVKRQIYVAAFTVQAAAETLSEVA

Compound: CNCCCC[C@@H]1NC(=O)[C@@H](NC(=O)[C@H](Cc2ccccc2)NC(=O)C(C)(C)NC(=O)[C@@H](NC(=O)CC2CCN(C(=O)CN3CCN(CC(=O)O)CCN(CC(=O)O)CCN(CC(=O)O)CC3)CC2)[C@@H](C)O)CSSC[C@@H](C(=O)N[C@H](C(=O)NCCN)C(C)(C)C)NC(=O)[C@H](CC(N)=O)NC(=O)C(C)(C)NC(=O)[C@H](CCCNC(=N)NC)NC1=O [PSM-605] ({DOTA}-[X1]T[Aib]FC[Lys(Me)][Arg(Me)][Aib]NC[Tle]-Ethylenediamine; disulfide 5-10)
IC50 [1, 3]: < 200 nM
Kd ([2]; PSMA SPR assay, category): < 12.6 nM

Compound: Ac-Thr-Aib-Phe-[Cys-Lys-Arg-Aib-Asn-Cys]-Tle-Thr-Cmp-lys (LuDOTA)-NH2 [PSM-0347]
pIC50 [C4-2] CAT ([1]; FACS binding, PSMA-expressing C4-2 cells, pIC50 category): A (pIC50 values >6.7)
pKD CAT ([2]; PSMA SPR assay, hPSMA-Fc, 25° C., pKD category): A (pKD values >7.9)

Compound: InDOTA-Cmp-Thr-Aib-Pcf-[Cys-Lys(Me)-Arg(Me)-Aib-Asn-Cys]-Tle-NH2 [PSM-0519]
pIC50 [C4-2] CAT [1, 4]: A (pIC50 values >6.7)
pKD CAT [2, 5]: A (pKD values >7.9)

Compound: InDOTA-Cmp-Thr-Aib-Phe-[Cys-Lys-Arg-Aib-Asn-Cys]-Tle-Thr-NH2 [PSM-0195]
pIC50 [C4-2] CAT [1, 6]: A (pIC50 values >6.7)
pKD CAT [2, 7]: A (pKD values >7.9)

Compound: InLSC-Cmp-Thr-Aib-Pcf-[Cys-Lys(Me)-Arg(Me)-Aib-Asn-Cys]-Tle-Thr-NH2 [PSM-0604]
pIC50 [C4-2] CAT [1, 3]: A (pIC50 values >6.7)
pKD CAT ([2]; PSMA SPR assay, category): A (pKD values >7.9)

Second part, the compound after the results:

IC50 [1, 3]: < 200 nM
Kd ([2]; PSMA SPR assay, category): < 12.6 nM
Compound: CNCCCC[C@@H]1NC(=O)[C@@H](NC(=O)[C@H](Cc2ccc(Cl)cc2)NC(=O)C(C)(C)NC(=O)[C@@H](NC(=O)CC2CCN(C(=O)CN3CCN(CC(=O)O)CCN(CC(=O)O)CCN(CC(=O)O)CC3)CC2)[C@@H](C)O)CSSC[C@@H](C(=O)N[C@H](C(=O)NCCC(N)=O)C(C)(C)C)NC(=O)[C@H](CC(N)=O)NC(=O)C(C)(C)NC(=O)[C@H](CCCNC(=N)NC)NC1=O [PSM-606] ({DOTA}-[X1]T[Aib][Phe(4-Cl)]C[Lys(Me)][Arg(Me)][Aib]NC[Tle][βAla]-NH2; disulfide 5-10)

pIC50 [C4-2] CAT [1, 4]: A (pIC50 values >6.7)
pKD CAT [2, 5]: A (pKD values >7.9)
Compound: Ac-Thr-Aib-Phe-[Cys-Lys-Arg-Aib-Asn-Cys]-Tle-Thr-Cmp-lys (InDOTA)-NH2 [PSM-0440]

pIC50 [C4-2] CAT [1, 6]: A (pIC50 values >6.7)
pKD CAT [2, 7]: A (pKD values >7.9)
Compound: nBuCAyl-Thr-Aib-Phe-[Cys-Lys-Arg-Aib-Asn-Cys]-Tle-Thr-Cmp-lys(InDOTA)-NH2 [PSM-0214]
